Data set [1] in a line: xn = mol fraction of the nth substance listed. The note with it: 100.2 kPa, Liquid, Pycnometric method.
The conditions of data set [2]: 100.2 kPa, Liquid, Pycnometric method.

± gives the expanded uncertainty stated by the source.

By mass density is commonly meant mass per unit of volume. `CCCCCCCCCC(=O)OCCN1CCN(CCCN2c3ccccc3Sc3ccc(C(F)(F)F)cc32)CC1` + O: the mass density is reported as 1000 ± 5 kg/m3 in data set [1] (298.2 K, x1 = 2.41e-07); 996 ± 6 kg/m3 in data set [1] (303.2 K, x1 = 3.11e-07); 993 ± 13 kg/m3 in data set [1] (308.2 K, x1 = 4.32e-07); 991 ± 2 kg/m3 in data set [1] (313.2 K, x1 = 5.86e-07); 989 ± 2 kg/m3 in data set [1] (318.2 K, x1 = 6.93e-07).
`O` [water]: the mass density is 1000 ± 2 kg/m3 in data set [2] (298.2 K); 996 ± 2 kg/m3 in data set [2] (303.2 K); 993 ± 2 kg/m3 in data set [2] (308.2 K); 991 ± 2 kg/m3 in data set [2] (313.2 K); 989 ± 2 kg/m3 in data set [2] (318.2 K).

These data come from the NIST ThermoML archive (doi:10.1016/j.fluid.2014.01.044).
